Experimental data reported in PubChem BioAssay (NCI).
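Growth conditions: 96-well plates. Treatment: test compound, 48 hours, 5 concentrations. Analysis: linear interpolation between bracketing concentrations; unreached endpoints set to highest concentration. At the GI50, growth is halved. Definition used: TGI = concentration required for complete inhibition of growth.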

Assays:
Assay in all cases: DTP human tumour cell line panel, 48 h
EKVX NSCLC = tested on: EKVX NSCLC
HCT-116 colon = tested on: HCT-116 colon
U251 CNS = tested on: U251 CNS
UACC-257 melanoma = tested on: UACC-257 melanoma
OVCAR-3 ovarian = tested on: OVCAR-3 ovarian
SN12C renal = tested on: SN12C renal
HCT-15 colon = tested on: HCT-15 colon
NCI-H23 lung = tested on: NCI-H23 lung
SF-539 CNS = tested on: SF-539 CNS
ACHN renal = tested on: ACHN renal
RXF 393 renal = tested on: RXF 393 renal
SNB-75 CNS = tested on: SNB-75 CNS
A498 renal = tested on: A498 renal
NCI/ADR-RES ovarian = tested on: NCI/ADR-RES ovarian
MDA-MB-435 = tested on: MDA-MB-435
HL-60(TB) leukemia = tested on: HL-60(TB) leukemia
SK-OV-3 ovarian = tested on: SK-OV-3 ovarian
CAKI-1 renal = tested on: CAKI-1 renal
OVCAR-8 ovarian = tested on: OVCAR-8 ovarian
T-47D breast = tested on: T-47D breast
HT29 colon = tested on: HT29 colon
SK-MEL-5 melanoma = tested on: SK-MEL-5 melanoma
HCC-2998 colon = tested on: HCC-2998 colon
MCF7 breast = tested on: MCF7 breast
NCI-H522 lung = tested on: NCI-H522 lung
COLO 205 colon = tested on: COLO 205 colon
DU-145 prostate = tested on: DU-145 prostate
MALME-3M melanoma = tested on: MALME-3M melanoma
NCI-H226 lung = tested on: NCI-H226 lung
MDA-MB-231 breast = tested on: MDA-MB-231 breast
BT-549 breast = tested on: BT-549 breast
SNB-19 CNS = tested on: SNB-19 CNS
HOP-62 NSCLC = tested on: HOP-62 NSCLC
SF-268 CNS = tested on: SF-268 CNS
UACC-62 melanoma = tested on: UACC-62 melanoma
NCI-H460 lung = tested on: NCI-H460 lung
SK-MEL-28 melanoma = tested on: SK-MEL-28 melanoma
LOX IMVI melanoma = tested on: LOX IMVI melanoma
HOP-92 NSCLC = tested on: HOP-92 NSCLC
SK-MEL-2 melanoma = tested on: SK-MEL-2 melanoma
PC-3 prostate = tested on: PC-3 prostate
IGROV1 ovarian = tested on: IGROV1 ovarian
TK-10 renal = tested on: TK-10 renal
UO-31 renal = tested on: UO-31 renal
786-0 renal = tested on: 786-0 renal
RPMI-8226 leukemia = tested on: RPMI-8226 leukemia
A549 NSCLC = tested on: A549 NSCLC
KM12 colon = tested on: KM12 colon
HS 578T breast = tested on: HS 578T breast
M14 melanoma = tested on: M14 melanoma
SW-620 colon = tested on: SW-620 colon
OVCAR-5 ovarian = tested on: OVCAR-5 ovarian
SF-295 CNS = tested on: SF-295 CNS
OVCAR-4 ovarian = tested on: OVCAR-4 ovarian

O=C(CCCn1c(=O)c2sc3ccccc3c2n2nnc(-c3ccccc3)c12)NCCc1cnc[nH]1
GI50 (EKVX NSCLC): 2700 nM
TGI (EKVX NSCLC): 8770 nM
GI50 (HCT-116 colon): 341 nM
TGI (HCT-116 colon): 1660 nM
GI50 (U251 CNS): 1060 nM
TGI (U251 CNS): 2240 nM
GI50 (UACC-257 melanoma): 2040 nM
TGI (UACC-257 melanoma): 4580 nM
GI50 (OVCAR-3 ovarian): 1520 nM
TGI (OVCAR-3 ovarian): 3180 nM
GI50 (SN12C renal): 271 nM
TGI (SN12C renal): 1870 nM
GI50 (HCT-15 colon): 1260 nM
TGI (HCT-15 colon): 2510 nM
GI50 (NCI-H23 lung): 2920 nM
TGI (NCI-H23 lung): 11600 nM
GI50 (SF-539 CNS): 664 nM
TGI (SF-539 CNS): 2190 nM
GI50 (ACHN renal): 1660 nM
TGI (ACHN renal): 3020 nM
GI50 (RXF 393 renal): 2520 nM
TGI (RXF 393 renal): 5020 nM
GI50 (SNB-75 CNS): 1860 nM
TGI (SNB-75 CNS): 4030 nM
GI50 (A498 renal): 1550 nM
TGI (A498 renal): 3000 nM
GI50 (NCI/ADR-RES ovarian): 3220 nM
TGI (NCI/ADR-RES ovarian): > 100000 nM
GI50 (MDA-MB-435): 1490 nM
TGI (MDA-MB-435): 3060 nM
GI50 (HL-60(TB) leukemia): 1410 nM
TGI (HL-60(TB) leukemia): 6360 nM
GI50 (SK-OV-3 ovarian): 3440 nM
TGI (SK-OV-3 ovarian): 15700 nM
GI50 (CAKI-1 renal): 181 nM
TGI (CAKI-1 renal): 1710 nM
GI50 (OVCAR-8 ovarian): 320 nM
TGI (OVCAR-8 ovarian): 2790 nM
GI50 (T-47D breast): 1400 nM
TGI (T-47D breast): 4490 nM
GI50 (HT29 colon): 1360 nM
TGI (HT29 colon): 3160 nM
GI50 (SK-MEL-5 melanoma): 1910 nM
TGI (SK-MEL-5 melanoma): 4110 nM
GI50 (HCC-2998 colon): 1770 nM
TGI (HCC-2998 colon): 4150 nM
GI50 (MCF7 breast): 1450 nM
TGI (MCF7 breast): 3080 nM
GI50 (NCI-H522 lung): 1060 nM
TGI (NCI-H522 lung): 11700 nM
GI50 (COLO 205 colon): 1100 nM
TGI (COLO 205 colon): 4800 nM
GI50 (DU-145 prostate): 1550 nM
TGI (DU-145 prostate): 2980 nM
GI50 (MALME-3M melanoma): 2490 nM
TGI (MALME-3M melanoma): 5490 nM
GI50 (NCI-H226 lung): 18600 nM
TGI (NCI-H226 lung): 37700 nM
GI50 (MDA-MB-231 breast): 1920 nM
TGI (MDA-MB-231 breast): 3610 nM
GI50 (BT-549 breast): 17300 nM
TGI (BT-549 breast): 41500 nM
GI50 (SNB-19 CNS): 1710 nM
TGI (SNB-19 CNS): 5040 nM
GI50 (HOP-62 NSCLC): 2320 nM
TGI (HOP-62 NSCLC): 5270 nM
GI50 (SF-268 CNS): 1770 nM
TGI (SF-268 CNS): 3720 nM
GI50 (UACC-62 melanoma): 1910 nM
TGI (UACC-62 melanoma): 3560 nM
GI50 (NCI-H460 lung): 1870 nM
TGI (NCI-H460 lung): 3800 nM
GI50 (SK-MEL-28 melanoma): 1750 nM
TGI (SK-MEL-28 melanoma): 3200 nM
GI50 (LOX IMVI melanoma): 1590 nM
TGI (LOX IMVI melanoma): 2930 nM

NC(=O)c1ncn(CC2(CO)CCC2)c1N
GI50 (SNB-75 CNS): 10800 nM

Cc1cc2cccnc2c2ncccc12
GI50 (HOP-92 NSCLC): 2380 nM
TGI (HOP-92 NSCLC): 17200 nM
GI50 (EKVX NSCLC): 665 nM
TGI (EKVX NSCLC): 16000 nM
GI50 (HCT-116 colon): 1140 nM
TGI (HCT-116 colon): 7060 nM
GI50 (SK-MEL-2 melanoma): 2380 nM
TGI (SK-MEL-2 melanoma): 31900 nM
GI50 (U251 CNS): 703 nM
TGI (U251 CNS): 12100 nM
GI50 (PC-3 prostate): 1570 nM
TGI (PC-3 prostate): 34400 nM
GI50 (UACC-257 melanoma): 2140 nM
TGI (UACC-257 melanoma): 6940 nM
GI50 (OVCAR-3 ovarian): 1750 nM
TGI (OVCAR-3 ovarian): 10300 nM
GI50 (SN12C renal): 1180 nM
TGI (SN12C renal): > 100000 nM
GI50 (HCT-15 colon): 436 nM
TGI (HCT-15 colon): 21300 nM
GI50 (NCI-H23 lung): 3110 nM
TGI (NCI-H23 lung): 87600 nM
GI50 (SF-539 CNS): 1830 nM
TGI (SF-539 CNS): 10800 nM
GI50 (ACHN renal): 460 nM
TGI (ACHN renal): 7510 nM
GI50 (RXF 393 renal): 1890 nM
TGI (RXF 393 renal): 6770 nM
GI50 (SNB-75 CNS): 3240 nM
TGI (SNB-75 CNS): > 100000 nM
GI50 (A498 renal): 1590 nM
TGI (A498 renal): 7300 nM
GI50 (NCI/ADR-RES ovarian): 315 nM
TGI (NCI/ADR-RES ovarian): 1840 nM
GI50 (MDA-MB-435): 2150 nM
TGI (MDA-MB-435): 21900 nM
GI50 (IGROV1 ovarian): 1180 nM
TGI (IGROV1 ovarian): 6440 nM
GI50 (SK-OV-3 ovarian): 756 nM
TGI (SK-OV-3 ovarian): 8420 nM
GI50 (CAKI-1 renal): 244 nM
TGI (CAKI-1 renal): 758 nM
GI50 (OVCAR-8 ovarian): 626 nM
TGI (OVCAR-8 ovarian): 11900 nM
GI50 (T-47D breast): 3320 nM
TGI (T-47D breast): 21300 nM
GI50 (TK-10 renal): 713 nM
TGI (TK-10 renal): 23900 nM
GI50 (HT29 colon): 1690 nM
TGI (HT29 colon): 16000 nM
GI50 (UO-31 renal): 411 nM
TGI (UO-31 renal): 4150 nM
GI50 (SK-MEL-5 melanoma): 1300 nM
TGI (SK-MEL-5 melanoma): 10700 nM
GI50 (786-0 renal): 770 nM
TGI (786-0 renal): 5970 nM
GI50 (HCC-2998 colon): 2750 nM
TGI (HCC-2998 colon): 68200 nM
GI50 (MCF7 breast): 2620 nM
TGI (MCF7 breast): > 100000 nM
GI50 (RPMI-8226 leukemia): 2430 nM
TGI (RPMI-8226 leukemia): 9070 nM
GI50 (A549 NSCLC): 949 nM
TGI (A549 NSCLC): 10600 nM
GI50 (KM12 colon): 780 nM
TGI (KM12 colon): 18400 nM
GI50 (HS 578T breast): 4040 nM
TGI (HS 578T breast): 47900 nM
GI50 (M14 melanoma): 1260 nM
TGI (M14 melanoma): 5320 nM
GI50 (SW-620 colon): 2340 nM
TGI (SW-620 colon): 27900 nM
GI50 (NCI-H522 lung): 3520 nM
TGI (NCI-H522 lung): 17900 nM
GI50 (OVCAR-5 ovarian): 1350 nM
TGI (OVCAR-5 ovarian): 42100 nM
GI50 (COLO 205 colon): 3400 nM
TGI (COLO 205 colon): 11500 nM
GI50 (DU-145 prostate): 1020 nM
TGI (DU-145 prostate): > 100000 nM
GI50 (MALME-3M melanoma): 2170 nM
TGI (MALME-3M melanoma): 7210 nM
GI50 (NCI-H226 lung): 1330 nM
TGI (NCI-H226 lung): 8810 nM
GI50 (MDA-MB-231 breast): 740 nM
TGI (MDA-MB-231 breast): > 100000 nM
GI50 (BT-549 breast): 2670 nM
TGI (BT-549 breast): 41900 nM
GI50 (SF-295 CNS): 555 nM
TGI (SF-295 CNS): 4570 nM
GI50 (SNB-19 CNS): 2270 nM
TGI (SNB-19 CNS): > 100000 nM
GI50 (HOP-62 NSCLC): 1450 nM
TGI (HOP-62 NSCLC): > 100000 nM
GI50 (SF-268 CNS): 739 nM
TGI (SF-268 CNS): 27700 nM
GI50 (UACC-62 melanoma): 1280 nM
TGI (UACC-62 melanoma): 9190 nM
GI50 (NCI-H460 lung): 508 nM
TGI (NCI-H460 lung): 2540 nM
GI50 (SK-MEL-28 melanoma): 2560 nM
TGI (SK-MEL-28 melanoma): > 100000 nM
GI50 (LOX IMVI melanoma): 674 nM
TGI (LOX IMVI melanoma): 8600 nM
GI50 (OVCAR-4 ovarian): 418 nM
TGI (OVCAR-4 ovarian): 14800 nM
